Where a SMILES comes first, the peptide text is derived from it. Bridges are numbered along the chain shown (N, C = ends). [ ]: non-standard residue; d: D form. The star is where a group is joined. d(aIle) = CC[C@H](C)[C@@H](N)C(=O)O; d(aThr) = C[C@@H](O)[C@@H](N)C(=O)O; Hexanoyl(5-Me) = CC(C)CCCC(=O)*; Myristoyl = CCCCCCCCCCCCCC(=O)*; Orn = NCCC[C@H](N)C(=O)O; Dhb = C/C=C(\N)C(=O)O
Tests used:
Type in all cases: cell-based, human
A-549 = assay: SRB colorimetric assay of cell growth and viability, A-549; settings: 48 hours exposure; for GI50: read-out: GI50 A-549; for CC50: read-out: LC50 A-549
SK-MEL-28 = assay: SRB colorimetric assay of cell growth and viability, SK-MEL-28; settings: 48 hours exposure; for CC50: read-out: LC50 MEL-28
HT-29 = assay: SRB colorimetric assay of cell growth and viability, HT-29; settings: 48 hours exposure; for GI50: read-out: GI50 HT-29; for CC50: read-out: LC50 HT-29
LoVo = assay: SRB colorimetric assay of cell growth and viability, LoVo; settings: 48 hours exposure; for CC50: read-out: LC50 LOVO
LoVo-Dox = assay: SRB colorimetric assay of cell growth and viability, LoVo-Dox; settings: 48 hours exposure; for CC50: read-out: LC50 LOVO-DOX
In short: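 First, 5×10^3 cells per well attach for 18 hours in RPMI 1640 with 10% FBS at 37° C and 5% CO2. Next, samples spanning 10 to 10^−8 μg/mL are added for 48 hours. Finally, cells are fixed with TCA, stained with SRB for 10 minutes and read at 490 nm.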

DU-145 = assay: SRB colorimetric assay of cell growth and viability, DU-145; settings: 48 hours exposure
LNCaP = assay: SRB colorimetric assay of cell growth and viability, LNCaP; settings: 48 hours exposure; for GI50: read-out: GI50 LN-caP; for CC50: read-out: LC50 LN-caP
IGROV-1 = assay: SRB colorimetric assay of cell growth and viability, IGROV-1; settings: 48 hours exposure
IGROV-ET = assay: SRB colorimetric assay of cell growth and viability, IGROV-ET; settings: 48 hours exposure; for CC50: read-out: LC50 IGROV-ET
SK-OV-3 = assay: SRB colorimetric assay of cell growth and viability, SK-OV-3; settings: 48 hours exposure; for GI50: read-out: GI50 SKOV-3; for CC50: read-out: LC50 SKOV-3
Text: The finality of this assay is to interrupt the growth of a “in vitro” tumor cell culture by means a continued exhibition of the cells to the sample to be testing.
A colorimetric type of assay, using sulforhodamine B (SRB) reaction has been adapted for a quantitative measurement of cell growth and viability [following the technique described by Philip Skehan, et al. (1990), New colorimetric cytotoxicity assay for anticancer drug screening, J. Natl. Cancer Inst., 82:1107-1112].
This form of the assay employs 96 well cell culture microplates of 9 mm diameter (Faircloth, 1988; Mosmann, 1983). Most of the cell lines are obtained from American Type Culture Collection (ATCC) derived from different human cancer types.
Cells are maintained in RPMI 1640 10% FBS, supplemented with 0.1 g/l penicillin and 0.1 g/l streptomycin sulfate and then incubated at 37° C., 5% CO2 and 98% humidity. For the experiments, cells were harvested from subconfluent cultures using trypsin and resuspended in fresh medium before plating.
Cells are seeded in 96 well microtiter plates, at 5×10^3 cells per well in aliquots of 195 μL medium, and they are allowed to attach to the plate surface by growing in drug free medium for 18 hours. Afterward, samples are added in aliquots of 5 μL in a ranging from 10 to 10^−8 μg/mL, dissolved in DMSO:EtOH:PBS (0.5:0.5:99). After 48 hours exposure, the antitumor effect are measured by the SRB methodology: cells are fixed by adding 50 μL of cold 50% (wt/vol) trichloroacetic acid (TCA) and incubating for 60 minutes at 4° C. Plates are washed with deionized water and dried. One hundred μL of SRB solution (0.4% wt/vol in 1% acetic acid) is added to each microtiter well and incubated for 10 minutes at room temperature. Unbound SRB is removed by washing with 1% acetic acid. Plates are air dried and bound stain is solubilized with Tris buffer. Optical densities are read on a automated spectrophotometric plate reader at a single wavelength of 490 nm.
The values for mean+/− SD of data from triplicate wells are calculated. Some parameters for cellular responses can be calculated: GI=growth inhibition, TGI=total growth inhibition (cytostatic effect) and LC=cell killing (cytotoxic effect).

K-562 = assay: SRB colorimetric assay of cell growth and viability, K-562; settings: 48 hours exposure; for CC50: read-out: LC50 K-562
PANC-1 = assay: SRB colorimetric assay of cell growth and viability, PANC-1; settings: 48 hours exposure; for CC50: read-out: LC50 PANC-1

In the case of `C/C=C1\NC(=O)[C@H](Cc2ccccc2)NC(=O)[C@@H](C(C)C)NC(=O)[C@@H]([C@@H](C)CC)NC(=O)[C@H](NC(=O)[C@H](NC(=O)[C@H](CCCN)NC(=O)[C@H]2CCCN2C(=O)[C@H](NC(=O)CCCC(C)C)C(C)C)[C@@H](C)CC)[C@@H](C)OC(=O)[C@H](C(C)C)NC1=O` [Compound 31, [noVal^11, noThr^12, noD-Val^13]-KF] ({Hexanoyl(5-Me)}-[dV][dP][Orn][d(aIle)][d(aThr)][d(aIle)][dV]F[Dhb]V; ester 5-C), the “TGI A-549” value (A-549) is reported as 8.49E−06 Molar, the GI50 (A-549) is reported as 5.91 µM and the CC50 (A-549) is reported as 8.49 µM. The GI50 (SK-MEL-28) was 4.21 µM, the “TGI MEL-28” value (SK-MEL-28) was 8.49E−06 Molar and the CC50 (SK-MEL-28) was 8.49 µM. The “TGI HT-29” value (HT-29) was 8.49E−06 Molar, the GI50 (HT-29) was 8.49 µM and the CC50 (HT-29) was 8.49 µM. The GI50 (LoVo) was 8.49 µM, the “TGI LOVO” value (LoVo) was 8.49E−06 Molar and the CC50 (LoVo) was 8.49 µM. For the same compound, the GI50 (LoVo-Dox) was 2.38 µM, the “TGI LOVO-DOX” value (LoVo-Dox) was 4.00E−06 Molar and the CC50 (LoVo-Dox) was at least 6.75 µM. The GI50 (DU-145) was 3.3 µM, the LC50 (concentration causing 50% net cell kill) (DU-145) was 8.49 µM and the “TGI DU-145” value (DU-145) was 6.37E−06 Molar. The “TGI LN-caP” value (LNCaP) was 3.79E−06 Molar, the GI50 (LNCaP) was 1.94 µM and the CC50 (LNCaP) was 7.39 µM. The GI50 (IGROV-1) was 2.69 µM, the LC50 (concentration causing 50% net cell killing) (IGROV-1) was 6.25 µM and the “TGI IGROV” value (IGROV-1) was 4.10E−06 Molar. The GI50 (IGROV-ET) was 2.69 µM, the “TGI IGROV-ET” value (IGROV-ET) was 4.07E−06 Molar and the CC50 (IGROV-ET) was 6.18 µM. The “TGI SKOV-3” value (SK-OV-3) was 5.03E−06 Molar, the GI50 (SK-OV-3) was 2.21 µM and the CC50 (SK-OV-3) was 8.49 µM. The GI50 (K-562) was 2.21 µM, the “TGI K-562” value (K-562) was 4.26E−06 Molar and the CC50 (K-562) was 8.18 µM. For the same compound, the GI50 (PANC-1) was 2.12 µM, the “TGI PANC-1” value (PANC-1) was 3.63E−06 Molar and the CC50 (PANC-1) was 6.23 µM.
`C/C=C1\NC(=O)[C@H](Cc2ccccc2)NC(=O)[C@@H](C(C)C)NC(=O)[C@@H]([C@@H](C)CC)NC(=O)[C@H](NC(=O)[C@H](NC(=O)[C@H](CCCN)NC(=O)[C@H]2CCCN2C(=O)[C@H](NC(=O)CCCCCCCCCCCCC)C(C)C)[C@@H](C)CC)[C@@H](C)OC(=O)[C@H](C(C)C)NC1=O` [Compound 32, [noVal^11, noThr^12, noD-Val^13, Mst^14]-KF] (Myristoyl-[dV][dP][Orn][d(aIle)][d(aThr)][d(aIle)][dV]F[Dhb]V; ester 5-C) was tested, and the “TGI A-549” value (A-549) was 7.83E−06 Molar, the GI50 (A-549) was 5.19 µM and the CC50 (A-549) was 7.83 µM. The GI50 (SK-MEL-28) was 2.08 µM, the “TGI MEL-28” value (SK-MEL-28) was 3.63E−06 Molar and the CC50 (SK-MEL-28) was 6.34 µM. The “TGI HT-29” value (HT-29) was 7.83E−06 Molar, the GI50 (HT-29) was 7.66 µM and the CC50 (HT-29) was 7.83 µM. For the same compound, the GI50 (LoVo) was 7.83 µM, the “TGI LOVO” value (LoVo) was 7.83E−06 Molar and the CC50 (LoVo) was 7.83 µM. For the same compound, the GI50 (LoVo-Dox) was 2.15 µM, the “TGI LOVO-DOX” value (LoVo-Dox) was 3.66E−06 Molar and the CC50 (LoVo-Dox) was 6.21 µM. For the same compound, the GI50 (DU-145) was 2.12 µM, the LC50 (concentration causing 50% net cell kill) (DU-145) was 6.81 µM and the “TGI DU-145” value (DU-145) was 3.80E−06 Molar. The “TGI LN-caP” value (LNCaP) was 3.08E−06 Molar, the GI50 (LNCaP) was 1.42 µM and the CC50 (LNCaP) was 6.67 µM. The GI50 (IGROV-1) was 2.29 µM, the LC50 (concentration causing 50% net cell killing) (IGROV-1) was 5.51 µM and the “TGI IGROV” value (IGROV-1) was 3.56E−06 Molar. The GI50 (IGROV-ET) was 2.06 µM, the “TGI IGROV-ET” value (IGROV-ET) was 3.26E−06 Molar and the CC50 (IGROV-ET) was 5.16 µM. The “TGI SKOV-3” value (SK-OV-3) was 6.27E−06 Molar, the GI50 (SK-OV-3) was 2.34 µM and the CC50 (SK-OV-3) was 7.83 µM. The GI50 (K-562) was 1.91 µM, the “TGI K-562” value (K-562) was 4.21E−06 Molar and the CC50 (K-562) was 7.83 µM. For the same compound, the GI50 (PANC-1) was 1.78 µM, the “TGI PANC-1” value (PANC-1) was 3.12E−06 Molar and the CC50 (PANC-1) was 5.49 µM.

Reference: US20070117743A1, “New antitumoral compounds” (priority 2003, published 2007)
